Experimental data reported in patent US20260132547A1, “NOVEL PHAGE LIBRARIES OF BICYCLIC PEPTIDES” (priority 2024, published 2026).
“Also recorded” adds a separate entry of the source. Numbered stars: 1 amine (or outer) side, 2 acyl side, 3 side chain; on linkers, the order of the positions; unused ones are H or OH. Bridge positions count the residues as written; N and C are the ends. Square brackets hold non-standard residues; d marks the D form. Peptide text beside a SMILES is read from it. X1 = O=C(c1cc(/C(=N/O)[*:2])cc(/C(=N/O)[*:3])c1)[*:1]; d(aIle) = CC[C@H](C)[C@@H](N)C(=O)O

Key:
[1] = Stability of bicyclic peptide in DMSO-d6/PBS/D2O, monitored by 1H NMR; format: physicochemical; conditions: 0.96 mM in DMSO-d6/PBS (pH 5.9)/D2O (1/8/1), 1 week
Procedure: FIG. 38. Stability studies of 5h (0.96 mM) in DMSO-d6/PBS (pH 5.9)/D2O (1/8/1) monitored by ^1H NMR.

[2] = Stability of bicyclic peptide in PBS at varied pH, monitored by LC-MS; format: physicochemical; conditions: 200 μM in PBS, pH 5.1, pH 7.4 and pH 9.2, over 16 days
Procedure: FIGS. 37a-37c. FIG. 37a. LC-MS (280 nm) trace of the bicyclic peptide 5h in PBS pH 5.1 over 16 days. FIG. 37b. LC-MS (280 nm) trace of the bicyclic peptide 5h in PBS pH 7.4 over 16 days. FIG. 37c. LC-MS (280 nm) trace of the bicyclic peptide 5h in PBS pH 9.21 over 16 days.
The bicyclic peptide 5h was prepared according to above mentioned procedure and purified by RP-HPLC. The solution of bicyclic peptide 5h (200 μM) in PBS was incubated at pH 5.1, pH 7.4, and pH 9.2, respectively. The sample was analyzed by LC-MS at different time points over 16 days (Method C).

[3] = Hydrolysis of OSu ester in aqueous acetone/PBS, monitored by 1H NMR; format: physicochemical
Text: FIG. 15. Hydrolysis of OSu ester (S18) in 80% acetone/PBS (pH 7.4) monitored by ^1H NMR.
FIG. 16. Hydrolysis of OSu ester (S18) in 50% acetone/PBS (pH 7.4) monitored by ^1H NMR.

[4] = target: SARS-CoV-2 Spike RBD (SARS-CoV-2), P0DTC2; experiment: ELISA: plate coated with 100 nM SARS-CoV-2 Spike RBD, biotinylated bicyclic peptide titrated, streptavidin-HRP/TMB, A450; curve fitting

CC[C@H](C)[C@H]1NC(=O)[C@H](CC(C)C)NC(=O)[C@H](C)NC(=O)c2cc3cc(c2)/C(=N/O)SC[C@H](NC(=O)CNC1=O)C(=O)N1CCC[C@H]1C(=O)N[C@@H](Cc1ccccc1)C(=O)N1CCC[C@H]1C(=O)N[C@@H](C)C(=O)N[C@@H](CCCNC(=N)N)C(=O)N[C@@H](Cc1c[nH]c2ccccc12)C(=O)N[C@H](C(N)=O)CS/C3=N\O [5h] (AL[d(aIle)]GCPFPARWC-NH2; linker N-5-12 via X1)
Chemical stability (1H NMR profile) [1]: no change of NMR profile | Chemical stability in PBS (LC-MS profile) [2]: remained intact; also recorded: no change of the LC-MS profile

O=C(ON1C(=O)CCC1=O)c1ccc(/C=N/O)cc1 [S18]
Percentage of S20 (%) ([3]; acetone-d6/PBS/D2O (5/4/1), 20 min): 12% | Percentage of S20 (%) ([3]; acetone-d6/PBS/D2O (5/4/1), 1 h): 26% | Percentage of S20 (%) ([3]; acetone-d6/PBS/D2O (5/4/1), 2 h): 33% | Percentage of S20 (%) ([3]; acetone-d6/PBS/D2O (8/1/1), 20 min): trace | Percentage of S20 (%) ([3]; acetone-d6/PBS/D2O (8/1/1), 1 h): trace | Percentage of S20 (%) ([3]; acetone-d6/PBS/D2O (8/1/1), 20 h): 4%

AIDSCRYNHGWQC (modifications not checked) [bicyclized NP8 (…)]
Kd [4]: 3000 nM

AISECNHIAEWMC (modifications not checked) [bicyclized NP10 (…)]
Kd [4]: 400 nM
